Reference: article PMC10392864, “Chukrasia tabularis limonoid plays anti-inflammatory role by regulating NF-κB signaling pathway in lipopolysaccharide-induced macrophages” (Food & Nutrition Research, 2023)
Read-outs that look alike come from different tables or passages of the source. Blank lines part the entries; values can stand above or below the compound they belong to.

Key:
[1] = system: LPS-induced NO production in RAW264.7 cells; assay: LPS-induced NO production in RAW264.7 cells (Griess reaction); format: cell-based; settings: RAW264.7 cells, LPS 2 µg/mL, supernatant after 24 h, read-out: IC50, inhibitory activity on LPS-induced NO production in RAW264.7 cells
Description: The inhibitory activities of compounds 1–16 on LPS stimulated macrophages was determined by Griess reaction. The NO content was detected by the NO kit according to the protocol described earlier ([23]). RAW264.7 cells obtained from the China Center for Cultivated Studies (Shanghai, China) were maintained in DMEM containing 10% FBS, and under 5% CO2 at 37°C. Briefly, the cells were seeded in a 96-well plate (1 × 10^5 cells/well), after 8 h of pre-incubation under 5% CO2 at 37°C, compounds 1–16 were added to the well plate, respectively, for 12 h. […] The supernatant of the cell culture were collected 24 h later.

A-549 (lung) cells = assay: Cytotoxicity, SRB method, A549; format: cell-based, human
Description: (§1) Huh-7 (hepatoma), MCF-7 (human breast), KB (oral epithelial), Hela (cervical), H460 (lung), A-549 (lung), and HepG2 (hepatocellular) cancer cell lines (provided by Shanghai Cell Bank) were maintained in RPMI 1640 at 37 ℃, supplemented with 10% FBS. Cytotoxicity was determined by the SRB method, with 5-fluorouracil (5-FU) as a positive control. The IC50 value was calculated using the GraphPad prism program.

[2] = system: HepG2 (hepatocellular) cells; assay: Cytotoxicity, SRB method, HepG2; format: cell-based, human
Description: as §1

[3] = system: Huh7, HepG2, KB, H460, Hela, A-549 and MCF-7 tumor cell lines; assay: Cytotoxicity, SRB method, statements on all seven tumor cell lines; format: cell-based, human; settings: for cytotoxicity on seven tumor cell lines (in words): Huh7, HepG2, KB, H460, Hela, A-549, MCF-7; for IC50: all seven cell lines, SRB method, footnote of Table S3, read-out: IC50, cytotoxicity against all cell lines tested
Description: The cytotoxicity of the separated compounds was assessed against seven tumor cell lines, Huh7, HepG2, KB, H460, Hela, A-549 and MCF-7 ([40], [41]).
as §1

[4] = system: MCF-7 (human breast) cells; assay: Cytotoxicity, SRB method, MCF-7; format: cell-based
Description: as §1

Hela (cervical) cells = assay: Cytotoxicity, SRB method, Hela; format: cell-based, human
Description: as §1

[5] = system: KB (oral epithelial) cells; assay: Cytotoxicity, SRB method, KB; format: cell-based, human
Description: as §1

Huh-7 (hepatoma) cells = assay: Cytotoxicity, SRB method, Huh-7; format: cell-based, human
Description: as §1

H460 (lung) cells = assay: Cytotoxicity, SRB method, H460; format: cell-based, human
Description: as §1

[6] = Cytotoxicity, SRB method, A549; format: cell-based, human; settings: human, A-549 (lung) cells
Description: as §1

[7] = Cytotoxicity, SRB method, HepG2; format: cell-based, human; settings: human, HepG2 (hepatocellular) cells
Description: as §1

[8] = Cytotoxicity, SRB method, Huh-7; format: cell-based, human; settings: human, Huh-7 (hepatoma) cells
Description: as §1

[9] = Cytotoxicity, SRB method, H460; format: cell-based, human; settings: human, H460 (lung) cells
Description: as §1

[10] = Cytotoxicity, SRB method, MCF-7; format: cell-based, human; settings: human, MCF-7 (human breast) cells
Description: as §1

[11] = Cytotoxicity, SRB method, Hela; format: cell-based, human; settings: human, Hela (cervical) cells
Description: as §1

[12] = Cytotoxicity, SRB method, KB; format: cell-based, human; settings: human, KB (oral epithelial) cells
Description: as §1

xylene-induced ear edema = assay: Ear edema induced by xylene in mice; format: in vivo; settings: 200 mg/kg intragastric, 1 h before xylene, ears weighed 1 h after xylene
Text: Male ICR mice (18–20 g) were provided by the Laboratory Animal Center, Fujian Medical University. […] One hour after xylene treatment, the mice were sacrificed by cervical dislocation. […] The weight difference of two plugs was used to measure the edema response (Table S1). Animal care and use complied with institutional guidelines, and the program was affirmed by the Experimental Animal Management Committee of Fujian Medical University.

Compound: 21β-methoxy-25-ene-bitrinonediol [Compound 7]
IC50 (A-549 (lung) cells): > 100 µM
IC50 [2]: > 100 µM
cytotoxicity on seven tumor cell lines (in words) [3]: moderate cytotoxicity
IC50 (Huh-7 (hepatoma) cells): 94.7 ± 12.5 µM
IC50 (H460 (lung) cells): > 100 µM
IC50 [4]: > 100 µM
IC50 (Hela (cervical) cells): 58.4 ± 9.09 µM
IC50 [5]: 40.9 ± 6.56 µM
IC50 [1]: > 100 µM

Compound: O=c1[nH]cc(F)c(=O)[nH]1 [5-Fluorouracil, 5-fluorouracil, reference compound]
IC50 [6]: 36.2 ± 1.73 µM
IC50 [7]: 30.5 ± 1.54 µM
IC50 [8]: 36.2 ± 4.17 µM
IC50 [9]: 13.7 ± 2.85 µM
IC50 [10]: 23.4 ± 1.22 µM
IC50 [11]: 2.31 ± 0.98 µM
IC50 [12]: 19.5 ± 1.24 µM

Compound: CC(=O)Oc1ccccc1C(=O)O [Aspirin]
Edema Degree (±SD) (xylene-induced ear edema): 4.99 ± 0.30 mg
Inhibition Rate of ear edema (xylene-induced ear edema): 36.30%

Compound: COC(=O)CC1C2(C)CC34OC5(C)OC6(C7CC(=O)OC(C8=CC(=O)OC8O)C7(C)CCC6(O5)C13C)C(OC(=O)C(C)C)C4(O)C2OC(=O)C(C)C (stereo not shown) [Compound 1, Phragmalin A]
IC50 ([1]; Mus musculus): 10.3 ± 0.39 µM

Compound: CCC(=O)OC1C2(O)C(OC(=O)CC(C)C)C3(C)CC24OC2(C)OC15C1CC(=O)OC(C6=CC(O)OC6=O)C1(C)CCC5(O2)C4(C)C3CC(=O)OC (stereo not shown) [Compound 3, Chukrasin G]
IC50 [6]: > 100 µM
IC50 [7]: 99.4 ± 10.6 µM
IC50 [8]: > 100 µM
IC50 [9]: > 100 µM
IC50 [10]: > 100 µM
IC50 [11]: > 100 µM
IC50 [12]: > 100 µM
IC50 ([1]; Mus musculus): 10.5 ± 0.98 µM

Compound: COC(=O)CC1C2(C)CC34OC5(C)OC6(C7CC(=O)OC(C8=CC(O)OC8=O)C7(C)CCC6(O5)C13C)C(OC(=O)C(C)C)C4(O)C2OC(=O)C(C)C (stereo not shown) [Compound 4, phragmalin, 22, 23-dihydro-23-hydroxy-21-oxo-3, 30-di-isobutyrates]
IC50 [3]: > 100 µM
IC50 [1]: 21.9 ± 5.61 µM

Compound: COC(=O)CC1C2(C)CC34OC5(C)OC6(C7CC(=O)OC(c8ccoc8)C7(C)CCC6(O5)C13C)C(OC(=O)C(C)C)C4(O)C2OC(=O)C(C)C (stereo not shown) [Compound 5, phragmalin, 3, 30-di-isobutyrates]
IC50 (A-549 (lung) cells): > 100 µM
IC50 [2]: 78 ± 12.7 µM
IC50 (Huh-7 (hepatoma) cells): > 100 µM
IC50 (H460 (lung) cells): > 100 µM
IC50 [4]: > 100 µM
IC50 (Hela (cervical) cells): > 100 µM
IC50 [5]: > 100 µM
IC50 [1]: 35.6 ± 7.23 µM

Compound: CC(C)(O)C1OCC(C2CCC3(C)C4=CCC5C(C)(C)C(=O)CCC5(C)C4CCC23C)CC1O (stereo not shown) [Compound 6, bourjotinolone A]
IC50 (A-549 (lung) cells): 43.6 ± 10.6 µM
IC50 [2]: 59.3 ± 4.67 µM
cytotoxicity on seven tumor cell lines (in words) [3]: potent inhibitory activities
IC50 (Huh-7 (hepatoma) cells): 29.6 ± 7.69 µM
IC50 [4]: > 100 µM
IC50 (Hela (cervical) cells): 29.3 ± 7.11 µM
IC50 [1]: 35.6 ± 4.29 µM

Compound: CC(C)(O)[C@@H](O)[C@H]1C[C@@H]([C@@H]2CC[C@]3(C)C4=CC[C@H]5C(C)(C)C(=O)CC[C@]5(C)[C@H]4CC[C@@]23C)[C@H](O)O1 [Compound 11, melianodiol]
IC50 (A-549 (lung) cells): 45.1 ± 6.33 µM
IC50 [2]: 80 ± 5.26 µM
cytotoxicity on seven tumor cell lines (in words) [3]: potent inhibitory activities
IC50 (Huh-7 (hepatoma) cells): 79.8 ± 9.24 µM
IC50 (H460 (lung) cells): 73.2 ± 10.5 µM
IC50 [4]: 52.6 ± 7.2 µM
IC50 (Hela (cervical) cells): 86.3 ± 9.28 µM
IC50 [5]: 63.5 ± 8.25 µM
IC50 [1]: 13.3 ± 2.67 µM

Compound: C[C@@H](C[C@@H](O)[C@H](O)C(C)(C)O)[C@@H]1CC[C@]2(C)C3=CC[C@H]4C(C)(C)C(=O)CC[C@]4(C)[C@H]3CC[C@@]12C [Compound 15, piscidinol A]
IC50 [1]: 33.6 ± 4.77 µM

Now from value to compound, other results behind:

IC50 [1]: 11.2 ± 1.12 µM
Compound: 3R, 23S, 24R, 25- tetraol- 7- glyoxiene [Compound 14]

IC50 [1]: 52.5 ± 8.98 µM
Compound: 21β- methylmelianodiol [Compound 9]
IC50 (A-549 (lung) cells): 66 ± 10.1 µM
IC50 [2]: 44.3 ± 6 µM
cytotoxicity on seven tumor cell lines (in words) [3]: potent inhibitory activities
IC50 [4]: > 100 µM
IC50 (Hela (cervical) cells): 60 ± 4.19 µM
IC50 [5]: 56.6 ± 8.3 µM

IC50 [1]: 95.1 ± 9.4 µM
Compound: 24-hydroxyl-7, 25-dien-3-one [Compound 10]
IC50 [3]: > 100 µM

IC50 [1]: 46.1 ± 6.11 µM
Compound: C=C(C)C(O)C(O)CC(C)C1CCC2(C)C3=CCC4C(C)(C)C(=O)CCC4(C)C3CCC12C (stereo not shown) [Compound 8, (13a, 14b, 17a, 20S, 23R, 24R)-23, 24-dihydro-xylanosta-7, 25-dien-3-one]
IC50 [3]: > 100 µM

IC50 [1]: 13.9 ± 5.33 µM
Compound: CO[C@@H]1O[C@@H]([C@H](O)C(C)(C)OC)C[C@H]1[C@@H]1CC[C@]2(C)C3=CC[C@H]4C(C)(C)C(=O)CC[C@]4(C)[C@H]3CC[C@@]12C [Compound 12, 21α, 25-dimethyl-melianodiol]

IC50 [1]: 24.9 ± 4.6 µM
Compound: CO[C@H]1O[C@@H]([C@H](O)C(C)(C)OC)C[C@H]1[C@@H]1CC[C@]2(C)C3=CC[C@H]4C(C)(C)C(=O)CC[C@]4(C)[C@H]3CC[C@@]12C [Compound 13, 21β, 25-dimethylmelianodiol]

IC50 [1]: > 100 µM
Compound: CC1(C)OC[C@H]([C@@H]2CC[C@]3(C)C4=CC[C@H]5C(C)(C)C(=O)CC[C@]5(C)[C@H]4CC[C@@]23C)C[C@@H](O)[C@@H]1O [Compound 16, hispidone]

IC50 ([1]; Mus musculus): 26.2 ± 1.56 µM
Compound: COc1ccc2c(c1)c(CC(=O)O)c(C)n2C(=O)c1ccc(Cl)cc1 [Indomethacin, reference compound]
